This is an account of results in ChEMBL document CHEMBL1125514, “Quantitative structure-activity relationships of N2-phenylguanines as inhibitors of herpes simplex virus thymidine kinases” (J Med Chem, 1992).

Experiment [1] addresses T1, Thymidine kinase (Human herpesvirus 2, UniProt Q6L709).
T1 sequence (Q6L709 whole entry): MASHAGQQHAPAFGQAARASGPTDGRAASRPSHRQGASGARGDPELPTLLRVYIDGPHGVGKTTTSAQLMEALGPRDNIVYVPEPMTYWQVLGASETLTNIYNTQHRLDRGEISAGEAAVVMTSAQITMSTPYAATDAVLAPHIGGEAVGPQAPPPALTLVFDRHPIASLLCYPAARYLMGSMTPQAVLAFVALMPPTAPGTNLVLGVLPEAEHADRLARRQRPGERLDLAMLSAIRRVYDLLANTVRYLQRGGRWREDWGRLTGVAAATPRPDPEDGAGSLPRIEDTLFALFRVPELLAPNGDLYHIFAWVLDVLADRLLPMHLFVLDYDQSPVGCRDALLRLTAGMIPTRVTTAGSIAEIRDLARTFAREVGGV
The experiment is described as follows: Inhibitory activity against HSV-2 thymidine kinase isolated from HeLa cells. It counts as cell-free. The conditions noted are these: read-out: Log 1/IC50 (converted).

In experiment [2] the target is T2, Thymidine kinase (Human herpesvirus 1 (strain SC16) (HHV-1) (Human herpes simplex virus1), UniProt P06479).
T2 sequence (P06479 whole entry): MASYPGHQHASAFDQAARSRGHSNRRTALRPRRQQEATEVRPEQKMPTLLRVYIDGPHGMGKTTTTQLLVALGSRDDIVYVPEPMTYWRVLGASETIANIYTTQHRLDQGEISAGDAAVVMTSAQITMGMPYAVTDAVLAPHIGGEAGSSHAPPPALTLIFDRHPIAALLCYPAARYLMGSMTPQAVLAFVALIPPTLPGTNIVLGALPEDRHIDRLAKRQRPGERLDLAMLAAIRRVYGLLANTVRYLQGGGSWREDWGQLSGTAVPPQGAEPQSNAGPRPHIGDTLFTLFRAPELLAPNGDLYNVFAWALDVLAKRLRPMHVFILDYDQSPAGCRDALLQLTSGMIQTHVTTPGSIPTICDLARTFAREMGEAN
The experiment is described as follows: Inhibitory activity against HSV-1 thymidine kinase isolated from HeLa cells. The class given is cell-free. The conditions noted are these: for IC50: read-out: Log 1/IC50 (converted).

Structures are written as SMILES.

Regarding `O=c1[nH]c(Nc2ccc(O)cc2)nc2nc[nH]c12`, the values for the IC50 in experiment [1] and in experiment [2] were 20 µM and 141 µM, respectively. On the same counts, the results for `Cc1ccc(Nc2nc3nc[nH]c3c(=O)[nH]2)cc1` are 6.03 µM and 50.1 µM.

For `Oc1[nH]c(Nc2ccc(C(F)(F)F)cc2)nc2ncnc1-2`, the results for the IC50 in experiment [1] and in experiment [2] were 39.8 µM and 30.2 µM, respectively.

For `NCc1cccc(Nc2nc(O)c3[nH]cnc3n2)c1`, the results for the IC50 in experiment [1] and in experiment [2] were 20 µM and 30.2 µM, respectively. Turning to `Oc1[nH]c(Nc2ccc(Cl)c(C(F)(F)F)c2)nc2ncnc1-2`, the IC50 in experiment [1] is 5.01 µM; in experiment [2] it was 20 µM.

With `Oc1[nH]c(Nc2ccc3ccccc3c2)nc2ncnc1-2`, the IC50 is 10 µM in experiment [1] and 39.8 µM in experiment [2]. As for `Oc1[nH]c(Nc2ccc(Cl)cc2)nc2ncnc1-2`, the IC50 in experiment [1] is 50.1 µM; in experiment [2] it was 100 µM. On the same counts, the results for `Oc1[nH]c(Nc2ccc(F)c(Cl)c2)nc2ncnc1-2` are 2.51 µM and 7.94 µM. In the case of `Oc1[nH]c(Nc2cccc(Br)c2)nc2ncnc1-2`, the IC50 in experiment [1] is 0.603 µM; in experiment [2], 1.51 µM. For `CCCCCc1ccc(Nc2nc(O)c3[nH]cnc3n2)cc1`, the IC50 was 251 µM in experiment [1] and 501 µM in experiment [2]. For the molecule `[N-]=[N+]=NCc1cccc(Nc2nc3ncnc-3c(O)[nH]2)c1`, the values for the IC50 in experiment [1] and in experiment [2] were 1.51 µM and 0.794 µM, respectively. Taken in the same sequence, the figures for `CCc1cccc(Nc2nc3nc[nH]c3c(=O)[nH]2)c1` were 3.98 µM and 2.51 µM. With `Oc1[nH]c(Nc2ccc(I)cc2)nc2ncnc1-2`, the IC50 in experiment [1] is 8.91 µM; in experiment [2], 39.8 µM. In the case of `Oc1[nH]c(Nc2ccc(F)cc2)nc2ncnc1-2`, the figures for the IC50 in experiment [1] and in experiment [2] were 257 µM and 302 µM, respectively. On the same counts, the results for `CC(C)c1ccc(Nc2nc(O)c3[nH]cnc3n2)cc1` are 100 µM and 200 µM. Take `CCCCc1ccc(Nc2nc(O)c3[nH]cnc3n2)cc1C`: in experiment [2], the IC50 was 39.8 µM. For the molecule `Oc1[nH]c(Nc2ccc(Br)c(Br)c2)nc2ncnc1-2`, the IC50 is 1.29 µM in experiment [1] and 3.02 µM in experiment [2]. On to `Oc1[nH]c(Nc2cccc(CCl)c2)nc2ncnc1-2`, for which the IC50 in experiment [1] was 1.35 µM; in experiment [2], 1.41 µM. On the same counts, the results for `O=c1[nH]c(Nc2ccc(F)c(F)c2)nc2nc[nH]c12` are 2.19 µM and 50.1 µM. `Cc1ccc(Nc2nc(O)c3[nH]cnc3n2)cc1CO`: the IC50 was 200 µM in experiment [1] and 269 µM in experiment [2]. Consider `Oc1[nH]c(Nc2cccc(I)c2)nc2ncnc1-2`, for which the IC50 in experiment [1] and in experiment [2] was 1.1 µM throughout.

Turning to `Oc1[nH]c(Nc2cccc(CBr)c2)nc2ncnc1-2`, the results for the IC50 in experiment [1] and in experiment [2] were 1.2 µM and 1 µM, respectively. With `Oc1[nH]c(Nc2cccc(Cl)c2)nc2ncnc1-2`, the IC50 was 0.347 µM in experiment [1] and 1.51 µM in experiment [2]. Take `O=c1nc(Nc2cccc(CO)c2)[nH]c2nc[nH]c12`: the results for the IC50 in experiment [1] and in experiment [2] were 20 µM and 25.1 µM, respectively. Regarding `CCCc1ccc(Nc2nc(O)c3[nH]cnc3n2)cc1`, the results for the IC50 in experiment [1] and in experiment [2] were 46.8 µM and 30.2 µM, respectively. With `O=c1[nH]c(Nc2cccc(C(F)(F)F)c2)nc2nc[nH]c12`, the values for the IC50 in experiment [1] and in experiment [2] were 0.1 µM and 0.151 µM, respectively. On to `CCCCc1ccc(Nc2nc(O)c3[nH]cnc3n2)cc1`, for which, in experiment [1], the IC50 was 50.1 µM. The “Log 1/IC50” value in experiment [2] (hela) is 4.3.

For `Oc1[nH]c(Nc2ccc(Br)cc2)nc2ncnc1-2`, the IC50 is 0.603 µM in experiment [1] and 1 µM in experiment [2].

`N#Cc1cccc(Nc2nc3ncnc-3c(O)[nH]2)c1`: the IC50 was 0.398 µM in experiment [1] and 5.01 µM in experiment [2].
